Test results published in ChEMBL document CHEMBL1201862, “PubChem BioAssay data set” (2004).
Where a name gives a salt, the structure may show the parent alone. Calls of active or inactive are those of the source.

How the values were obtained:
[1] = Luminescence Cell-Based Dose Response HTS to Identify Inhibitors of 5'UTR Stem-Loop Driven Prion Protein mRNA Translation in H4 Neuroglioblastoma Cells. [Related pubchem assays: 1827 (Project Summary), 1813 (Primary HTS)]; format: functional
[2] = biological target: Luciferin 4-monooxygenase (Photinus pyralis, UniProt P08659); test: Counter Screen for Luciferase-based Assay Positives. [Related pubchem assays: 620, 618, 411 ]
[3] = alpha-synuclein stem-loop luciferase translation blockers – H4 neuroglioma cells, luminescence, confirmation (AID 1988); format: functional, cell-based
HT-1080 = test: HT1080 cell viability loss – fluorescence readout (AID 620); format: functional, cell-based; settings: Homo sapiens
[4] = biological target: T1, Heat shock factor protein 1 (Mus musculus, UniProt P38532); test: enhancement of HSF1-driven luciferase signal – cell-based, NIH3T3, luminescence, dose retest, confirmation (AID 435004); format: functional;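 note: stress induced by proteasome inhibitor MG132 added 30 min after compound; luciferase reporter driven by HSF1 response element in NIH3T3 cells; actives raise luminescence as potentiators of the MG132 stress response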
T1 sequence (P38532 whole entry): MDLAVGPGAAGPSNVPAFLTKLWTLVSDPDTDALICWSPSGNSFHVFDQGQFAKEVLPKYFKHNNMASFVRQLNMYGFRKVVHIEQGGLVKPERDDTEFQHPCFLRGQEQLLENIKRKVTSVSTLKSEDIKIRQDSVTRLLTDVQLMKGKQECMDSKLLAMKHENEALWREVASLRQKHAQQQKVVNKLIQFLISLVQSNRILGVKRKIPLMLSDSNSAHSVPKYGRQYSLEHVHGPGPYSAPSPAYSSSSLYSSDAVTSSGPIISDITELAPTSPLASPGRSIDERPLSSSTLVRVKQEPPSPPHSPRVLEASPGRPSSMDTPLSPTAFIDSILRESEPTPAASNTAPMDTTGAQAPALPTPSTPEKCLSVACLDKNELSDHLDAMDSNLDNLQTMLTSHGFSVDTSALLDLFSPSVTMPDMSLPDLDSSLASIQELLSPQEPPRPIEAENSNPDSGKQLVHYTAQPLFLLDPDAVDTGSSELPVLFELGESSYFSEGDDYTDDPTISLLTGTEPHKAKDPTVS

Protein skinhead-1 = biological target: T2, Protein skinhead-1 (Caenorhabditis elegans, UniProt P34707); format: functional
T2 sequence (P34707 whole entry): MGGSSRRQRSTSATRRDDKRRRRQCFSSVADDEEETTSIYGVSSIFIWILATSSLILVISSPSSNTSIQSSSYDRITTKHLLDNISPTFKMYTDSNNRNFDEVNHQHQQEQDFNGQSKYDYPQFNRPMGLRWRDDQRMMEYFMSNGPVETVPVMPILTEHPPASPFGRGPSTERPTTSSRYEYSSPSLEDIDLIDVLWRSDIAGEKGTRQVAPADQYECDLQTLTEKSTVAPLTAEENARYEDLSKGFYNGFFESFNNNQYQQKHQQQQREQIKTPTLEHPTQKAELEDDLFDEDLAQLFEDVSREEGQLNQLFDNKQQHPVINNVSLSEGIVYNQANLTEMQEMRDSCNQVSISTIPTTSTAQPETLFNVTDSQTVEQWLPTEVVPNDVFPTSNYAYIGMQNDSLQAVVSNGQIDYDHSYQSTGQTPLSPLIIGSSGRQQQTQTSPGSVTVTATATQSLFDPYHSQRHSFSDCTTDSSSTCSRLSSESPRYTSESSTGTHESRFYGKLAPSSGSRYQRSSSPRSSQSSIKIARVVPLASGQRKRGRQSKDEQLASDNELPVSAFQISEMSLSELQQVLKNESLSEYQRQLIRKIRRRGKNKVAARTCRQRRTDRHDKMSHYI

[5] = NIH3T3 cell viability loss – ATP luminescence, mouse fibroblasts, counter-screen, dose response (AID 2010); format: functional, cell-based;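 note: cells exposed to compound for about 90 hours before reading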
[6] = Trypanosoma cruzi growth suppression in host cells – NIH3T3 host cells, beta-gal luminescence, confirmation (AID 2044); format: functional, cell-based;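 note: intracellular parasites grown in NIH/3T3 mouse fibroblasts as host cells; luminescent beta-galactosidase reporter signal from transgenic T. cruzi replicating inside host cells; inhibitors lower the luminescence signal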
[7] = biological target: FAD-linked sulfhydryl oxidase ALR (Homo sapiens, UniProt P55789); test: ALR-catalysed DTT oxidation blockers – biochemical, H2O2 detection, luminescence, cherry-pick, dose response (AID 493248)
Estrogen receptor beta = Estrogen receptor beta (Homo sapiens, UniProt Q92731); test: blockers of SRC-3 recruitment to ERβ – biochemical, ELISA, streptavidin-HRP readout, orthogonal assay, confirmation (AID 1060)
[8] = loss of viability in HepG2 cells – cell-based, CellTiter-Glo, cherry-picked, cytotoxicity control for Shn3 inhibitor project, dose response (AID 624134); format: functional
[9] = biological target: T3, Ubiquitin-conjugating enzyme E2 N (Homo sapiens, UniProt P61088); format: functional;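 note: Dose-response confirmation in a TR-FRET assay detecting UBC13-driven polyubiquitin chain formation, inhibition measured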
T3 sequence (P61088 whole entry): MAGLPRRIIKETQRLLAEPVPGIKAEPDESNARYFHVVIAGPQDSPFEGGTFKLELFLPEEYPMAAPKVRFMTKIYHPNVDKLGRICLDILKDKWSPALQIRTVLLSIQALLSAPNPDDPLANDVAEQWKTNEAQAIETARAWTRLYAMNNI

[10] = biological target: T4, Histone-lysine N-methyltransferase NSD2 (Homo sapiens, UniProt O96028); format: biochemical
T4 sequence (O96028 whole entry): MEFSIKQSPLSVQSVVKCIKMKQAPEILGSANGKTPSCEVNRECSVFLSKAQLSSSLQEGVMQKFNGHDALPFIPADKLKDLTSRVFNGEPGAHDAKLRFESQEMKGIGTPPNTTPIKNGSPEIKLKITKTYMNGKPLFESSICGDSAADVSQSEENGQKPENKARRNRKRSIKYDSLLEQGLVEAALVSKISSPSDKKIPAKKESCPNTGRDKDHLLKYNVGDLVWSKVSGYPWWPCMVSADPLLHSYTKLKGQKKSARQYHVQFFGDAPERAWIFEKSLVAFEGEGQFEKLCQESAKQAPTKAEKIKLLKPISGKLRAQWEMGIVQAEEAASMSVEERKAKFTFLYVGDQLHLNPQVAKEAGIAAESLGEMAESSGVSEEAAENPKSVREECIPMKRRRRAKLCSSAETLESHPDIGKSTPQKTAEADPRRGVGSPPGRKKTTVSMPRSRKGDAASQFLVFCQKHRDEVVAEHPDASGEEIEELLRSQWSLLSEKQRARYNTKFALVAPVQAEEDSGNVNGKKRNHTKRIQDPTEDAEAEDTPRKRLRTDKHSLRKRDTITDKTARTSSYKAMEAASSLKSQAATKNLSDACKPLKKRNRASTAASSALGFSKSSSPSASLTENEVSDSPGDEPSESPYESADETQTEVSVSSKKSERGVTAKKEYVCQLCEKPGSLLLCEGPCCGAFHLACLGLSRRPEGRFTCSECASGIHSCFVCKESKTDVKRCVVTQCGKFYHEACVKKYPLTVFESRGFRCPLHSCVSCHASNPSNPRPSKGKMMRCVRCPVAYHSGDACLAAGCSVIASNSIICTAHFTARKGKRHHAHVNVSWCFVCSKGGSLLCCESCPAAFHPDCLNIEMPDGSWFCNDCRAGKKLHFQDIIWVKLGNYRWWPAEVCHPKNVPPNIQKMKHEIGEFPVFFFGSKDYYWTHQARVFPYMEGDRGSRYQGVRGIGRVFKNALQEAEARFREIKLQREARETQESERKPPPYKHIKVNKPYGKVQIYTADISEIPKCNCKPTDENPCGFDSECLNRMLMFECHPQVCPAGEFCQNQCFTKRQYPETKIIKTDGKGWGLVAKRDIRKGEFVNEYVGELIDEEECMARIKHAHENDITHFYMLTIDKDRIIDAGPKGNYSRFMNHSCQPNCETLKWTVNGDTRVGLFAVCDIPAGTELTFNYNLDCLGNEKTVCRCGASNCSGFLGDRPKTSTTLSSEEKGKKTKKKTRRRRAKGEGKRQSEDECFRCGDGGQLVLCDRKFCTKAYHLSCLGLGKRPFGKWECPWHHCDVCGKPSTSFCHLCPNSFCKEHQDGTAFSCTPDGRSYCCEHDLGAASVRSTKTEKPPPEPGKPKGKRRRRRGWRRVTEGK

[11] = luciferase reporter signal suppression in cells – H4 neuroglioma cells, luminescence, dose response (AID 1990); format: functional, cell-based
[12] = viability of PTEN-deleted HCT116 cells – cell-based, HCT116 PTEN knockout, dose response (AID 1047); format: functional;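 note: HCT116 colon tumor cells with PTEN knocked out; cells exposed to compound for 60 hours before readout; potency for loss of cell viability measured by luminescence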
[13] = reduction of Shn3 3'UTR-driven luciferase in osteoblasts – cell-based, Clone20 osteoblasts, firefly luciferase, cherry-picked, dose response (AID 624132); format: functional;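 note: firefly luciferase luminescence from reporter carrying the Shn3 3'UTR in osteoblasts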
[14] = viability of HCT116 lacking mutant beta-catenin – cell-based, human colon tumor, dose response (AID 1045); format: functional;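 note: HCT116 colon tumor cells with beta catenin knocked out; cells exposed to compound for 60 hours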
[15] = non-specific 3'UTR reporter inhibition in Clone20-Shn3RL – cell-based, Renilla luciferase, cherry-picked, counter-screen for Shn3 inhibitor project, dose response (AID 624133); format: functional
[16] = biological target: T5, Trace amine-associated receptor 1 (Homo sapiens, UniProt Q96RJ0); test: Counterscreen for agonists of the human trace amine associated receptor 1 (hTAAR1): Fluorescence-based cell-based high throughput dose response assay to identify hTAAR1 agonist that also desensitize TAAR1 receptor response.; format: functional
T5 sequence (Q96RJ0 whole entry): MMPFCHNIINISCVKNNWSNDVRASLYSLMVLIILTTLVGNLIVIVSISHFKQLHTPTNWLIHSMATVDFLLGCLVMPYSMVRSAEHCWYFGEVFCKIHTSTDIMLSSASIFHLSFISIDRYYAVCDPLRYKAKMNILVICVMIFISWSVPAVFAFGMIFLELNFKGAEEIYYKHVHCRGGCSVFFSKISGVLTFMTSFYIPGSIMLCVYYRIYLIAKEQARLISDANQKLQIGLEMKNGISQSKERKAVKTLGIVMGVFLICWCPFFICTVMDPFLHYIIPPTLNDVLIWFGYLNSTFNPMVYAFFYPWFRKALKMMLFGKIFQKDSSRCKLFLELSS

[17] = biological target: T5, Trace amine-associated receptor 1; test: Fluorescence-based cell-based high throughput dose response assay to identify agonists of the human trace amine associated receptor 1 (TAAR1).; format: functional
Nonstructural protein 1 = Nonstructural protein 1 (Influenza A virus, UniProt Q194T2); format: functional, Influenza A virus (A/California/07/2009(H1N1))
[18] = biological target: Ras and Rab interactor 1/Tyrosine-protein kinase ABL1 (Homo sapiens, UniProt P00519+Q13671); format: functional;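 note: biochemical TR-FRET dose-response test measuring inhibition of binding between Rin1 and Abl proteins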
[19] = THP-1 cell cytotoxicity, dose response, cytotoxicity control for non-replicating M. tuberculosis project (AID 489025); format: functional

Sequence of Luciferin 4-monooxygenase (P08659 whole entry): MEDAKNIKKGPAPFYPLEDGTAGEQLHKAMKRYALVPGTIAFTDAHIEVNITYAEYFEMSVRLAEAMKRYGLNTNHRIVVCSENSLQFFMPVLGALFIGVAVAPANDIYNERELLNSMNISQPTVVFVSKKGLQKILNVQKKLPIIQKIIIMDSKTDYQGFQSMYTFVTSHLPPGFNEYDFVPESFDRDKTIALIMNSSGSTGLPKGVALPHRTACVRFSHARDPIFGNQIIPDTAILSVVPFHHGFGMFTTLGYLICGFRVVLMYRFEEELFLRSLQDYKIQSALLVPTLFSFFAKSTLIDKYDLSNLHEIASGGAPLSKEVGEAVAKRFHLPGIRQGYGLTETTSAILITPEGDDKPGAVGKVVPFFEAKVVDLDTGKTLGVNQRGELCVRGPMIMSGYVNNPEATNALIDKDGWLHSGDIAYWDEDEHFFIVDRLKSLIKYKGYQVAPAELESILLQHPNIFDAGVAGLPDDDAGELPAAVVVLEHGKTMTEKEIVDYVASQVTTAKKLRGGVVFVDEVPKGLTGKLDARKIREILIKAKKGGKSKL
Sequence of Estrogen receptor beta (Q92731 whole entry): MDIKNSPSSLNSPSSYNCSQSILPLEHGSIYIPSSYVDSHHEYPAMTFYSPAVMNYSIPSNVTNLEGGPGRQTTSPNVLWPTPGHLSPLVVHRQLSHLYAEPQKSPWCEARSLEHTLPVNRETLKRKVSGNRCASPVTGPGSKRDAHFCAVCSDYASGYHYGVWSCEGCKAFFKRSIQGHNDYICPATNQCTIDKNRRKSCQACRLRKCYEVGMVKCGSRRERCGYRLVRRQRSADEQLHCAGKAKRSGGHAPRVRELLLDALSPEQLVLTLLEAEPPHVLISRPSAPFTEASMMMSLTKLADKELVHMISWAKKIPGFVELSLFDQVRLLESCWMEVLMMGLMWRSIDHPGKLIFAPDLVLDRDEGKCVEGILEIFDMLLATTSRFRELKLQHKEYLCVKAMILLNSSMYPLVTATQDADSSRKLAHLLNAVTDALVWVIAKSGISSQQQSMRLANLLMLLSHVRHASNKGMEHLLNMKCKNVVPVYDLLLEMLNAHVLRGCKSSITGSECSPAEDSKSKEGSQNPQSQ
Sequence of Ras and Rab interactor 1/Tyrosine-protein kinase ABL1 (P00519 whole entry): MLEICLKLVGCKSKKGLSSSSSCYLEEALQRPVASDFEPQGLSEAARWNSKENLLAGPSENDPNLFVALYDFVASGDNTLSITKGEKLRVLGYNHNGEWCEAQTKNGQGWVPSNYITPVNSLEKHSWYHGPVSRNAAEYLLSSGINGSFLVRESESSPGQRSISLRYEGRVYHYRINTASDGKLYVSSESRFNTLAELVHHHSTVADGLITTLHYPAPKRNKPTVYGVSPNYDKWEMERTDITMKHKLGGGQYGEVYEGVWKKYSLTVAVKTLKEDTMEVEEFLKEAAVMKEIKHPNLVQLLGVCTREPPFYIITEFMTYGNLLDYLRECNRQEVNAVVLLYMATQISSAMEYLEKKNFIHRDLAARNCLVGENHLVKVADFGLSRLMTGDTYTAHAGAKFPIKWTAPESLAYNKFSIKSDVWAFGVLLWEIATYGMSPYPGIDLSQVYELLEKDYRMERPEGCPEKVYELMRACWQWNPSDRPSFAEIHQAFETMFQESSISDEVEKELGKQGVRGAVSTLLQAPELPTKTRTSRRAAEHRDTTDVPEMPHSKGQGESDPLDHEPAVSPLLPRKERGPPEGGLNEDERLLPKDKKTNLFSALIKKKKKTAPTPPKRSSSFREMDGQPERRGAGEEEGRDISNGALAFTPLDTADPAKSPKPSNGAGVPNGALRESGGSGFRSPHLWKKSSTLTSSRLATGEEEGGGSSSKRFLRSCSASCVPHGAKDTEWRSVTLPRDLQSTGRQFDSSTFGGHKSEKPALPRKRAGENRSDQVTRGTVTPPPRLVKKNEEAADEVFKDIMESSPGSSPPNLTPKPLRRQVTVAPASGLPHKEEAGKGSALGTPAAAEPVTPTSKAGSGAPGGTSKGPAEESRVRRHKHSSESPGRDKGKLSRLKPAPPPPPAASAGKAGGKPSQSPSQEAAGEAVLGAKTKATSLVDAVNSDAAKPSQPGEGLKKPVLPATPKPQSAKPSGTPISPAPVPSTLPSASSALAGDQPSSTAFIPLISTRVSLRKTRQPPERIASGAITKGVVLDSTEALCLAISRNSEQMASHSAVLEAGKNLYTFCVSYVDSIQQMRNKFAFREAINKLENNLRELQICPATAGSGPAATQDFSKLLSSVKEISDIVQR
Sequence of Ras and Rab interactor 1/Tyrosine-protein kinase ABL1 (Q13671 whole entry): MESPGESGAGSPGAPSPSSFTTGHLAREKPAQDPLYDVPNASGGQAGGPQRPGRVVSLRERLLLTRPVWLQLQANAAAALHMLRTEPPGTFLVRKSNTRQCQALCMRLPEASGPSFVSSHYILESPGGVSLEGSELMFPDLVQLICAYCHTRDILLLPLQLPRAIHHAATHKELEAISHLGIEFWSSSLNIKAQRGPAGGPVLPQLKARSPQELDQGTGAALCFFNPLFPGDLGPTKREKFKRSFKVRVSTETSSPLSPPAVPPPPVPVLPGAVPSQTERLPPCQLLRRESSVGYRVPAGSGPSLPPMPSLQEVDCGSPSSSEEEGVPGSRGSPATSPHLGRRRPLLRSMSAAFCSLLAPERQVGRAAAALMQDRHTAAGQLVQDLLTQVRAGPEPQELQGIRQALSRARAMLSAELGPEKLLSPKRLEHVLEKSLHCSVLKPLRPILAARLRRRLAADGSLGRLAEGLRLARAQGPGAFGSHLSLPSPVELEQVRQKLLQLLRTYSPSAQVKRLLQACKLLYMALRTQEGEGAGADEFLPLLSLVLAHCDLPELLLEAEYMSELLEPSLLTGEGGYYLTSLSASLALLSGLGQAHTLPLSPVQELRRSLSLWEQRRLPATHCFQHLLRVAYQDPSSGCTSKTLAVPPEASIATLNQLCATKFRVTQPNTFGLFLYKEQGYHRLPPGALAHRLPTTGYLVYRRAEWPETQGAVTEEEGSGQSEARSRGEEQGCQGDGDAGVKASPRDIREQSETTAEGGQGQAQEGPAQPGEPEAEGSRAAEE
Sequence of FAD-linked sulfhydryl oxidase ALR (P55789 whole entry): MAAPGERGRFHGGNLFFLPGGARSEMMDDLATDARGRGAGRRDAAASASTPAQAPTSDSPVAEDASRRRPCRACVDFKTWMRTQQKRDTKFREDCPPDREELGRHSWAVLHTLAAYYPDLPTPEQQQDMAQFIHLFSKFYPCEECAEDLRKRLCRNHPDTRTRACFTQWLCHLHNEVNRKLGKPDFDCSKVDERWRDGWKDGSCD
Sequence of Nonstructural protein 1 (Q194T2 whole entry): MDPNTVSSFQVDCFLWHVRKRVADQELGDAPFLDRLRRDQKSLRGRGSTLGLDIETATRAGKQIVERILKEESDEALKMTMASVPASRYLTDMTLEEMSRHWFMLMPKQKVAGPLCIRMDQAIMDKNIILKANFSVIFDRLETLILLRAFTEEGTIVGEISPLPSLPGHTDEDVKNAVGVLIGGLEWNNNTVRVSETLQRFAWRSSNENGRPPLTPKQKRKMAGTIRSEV

## O=C(CCCOc1ccccc1)N1CCCCC1
[1]
  EC50: 8.9 µM (active)
[2]
  EC50: < 0.2 µM (active)
[3]
  EC50: 8.68 µM (active)
HT-1080
  EC50: > 50 µM (not active)

## CCCc1cc(C(=O)Nc2nccs2)cs1
[4]
  EC50: > 260 µM (inconclusive)
[2]
  EC50: < 0.2 µM (active)
Protein skinhead-1
  IC50: > 100 µM (inactive)
HT-1080
  EC50: > 50 µM (not active)

## CCN(CCNC(=O)C1CCCN(Cc2nc(-c3ccc(OC)cc3)oc2C)C1)c1ccccc1 (stereo not drawn)
cells
  EC50: 0.383 µM (active)
[5]
  EC50: 7.96 µM (active)
[6]
  EC50: < 0.1 µM (active)
[7]
  AC50: 0.01 µM (active)

## N#Cc1c(NC(=O)CN2CCCCC2)sc2c1CCCC2
Estrogen receptor beta
  IC50: 0.0343 µM (not active)

## CC1CN(CCOCCSc2ccc(Cl)cc2)CC(C)O1 (stereo not drawn)
cells
  EC50: 0.025 µM (active)
[5]
  EC50: > 60 µM (not active)
[6]
  EC50: < 0.1 µM (active)

## O=C(CSc1nnc(-c2csc3c2CCCC3)o1)Nc1ccccc1
[2]
  EC50: 4.34 µM (active)
HT-1080
  EC50: > 50 µM (not active)

## O=C(C1=C[C@H](C2CCCCC2)C[C@H](OCc2ccc(CO)cc2)O1)N1CCN(Cc2ccc3c(c2)OCO3)CC1
cells
  EC50: 0.156 µM (active)
[5]
  EC50: > 60 µM (not active)
[6]
  EC50: < 0.1 µM (active)

## CN1CCN(c2ccc(NC(=O)COc3ccccc3Cl)cc2)CC1
Estrogen receptor beta
  IC50: 0.814 µM (not active)

## CCCCCCCSc1cc(OC)c(CCNC)cc1OC
[8]
  AC50: 8.47 µM (active)
[9]
  IC50: > 20 µM (inactive)
[10]
  AC50: 17.5 µM (active)
[1]
  EC50: > 120 µM (not active)
[11]
  EC50: > 120 µM (not active)
[12]
  EC50: 9.72 µM (active)
[13]
  AC50: 10.6 µM (active)
[14]
  EC50: 8.71 µM (active)
[3]
  EC50: 11.9 µM (active)
[15]
  AC50: 10.5 µM (active)

## c1ccc(CN(CC2=NCCN2)c2ccccc2)cc1 [ANTAZOLINE HYDROCHLORIDE]
[16]
  IC50: > 29.9 µM (inactive)
[17]
  EC50: 4.31 µM (active)

## CC(=O)n1cc([C@H]2C=C(C(=O)N3CCN(Cc4ccc5c(c4)OCO5)CC3)O[C@@H](OCc3ccc(CO)cc3)C2)c2ccccc21
cells
  EC50: 0.197 µM (active)
[5]
  EC50: > 30 µM (not active)
[6]
  EC50: < 0.1 µM (active)

## CC1NC(=O)NC1CCCCCC(=O)Nc1ccc(F)c(Cl)c1 (stereo not drawn)
[10]
  AC50: 0.343 µM (active)
Nonstructural protein 1
  IC50: 1.16 µM (active)
[18]
  IC50: 0.015 µM (active)

## COc1ccc(O)c(C(=O)CC(=O)c2ccc(F)cc2)c1
[19]
  CC50: > 40 µM (active)
[2]
  EC50: 0.35 µM (active)
HT-1080
  EC50: > 50 µM (not active)
